Measurements reported in ChEMBL document CHEMBL4270599, “Synthesis of a 3'-C-ethynyl-β-d-ribofuranose purine nucleoside library: Discovery of C7-deazapurine analogs as potent antiproliferative nucleosides” (Eur J Med Chem, 2018).

Experiments:
Format in all cases: functional
[1] = test system: SR; assay: Cytotoxicity against human SR cells after 48 hrs by SRB assay; settings: for CC50: read-out: pLC50 (the source's name) (converted)
[2] = test system: EKVX; assay: Cytotoxicity against human EKVX cells after 48 hrs by SRB assay; settings: for CC50: read-out: pLC50 (the source's name) (converted)
[3] = test system: NCI-H226; assay: Cytotoxicity against human NCI-H226 cells after 48 hrs by SRB assay; settings: NCI-H226, 48 h; for CC50: read-out: pLC50 (the source's name) (converted)
[4] = test system: COLO 205; assay: Cytotoxicity against human COLO205 cells after 48 hrs by SRB assay; settings: COLO 205, 48 h
[5] = test system: OVCAR-3; assay: Cytotoxicity against human OVCAR3 cells after 48 hrs by SRB assay; settings: OVCAR-3, 48 h
[6] = test system: NCI/ADR-RES; assay: Cytotoxicity against human NCI-ADR-RES cells after 48 hrs by SRB assay; settings: for CC50: read-out: pLC50 (the source's name) (converted)
[7] = test system: HL-60(TB); assay: Growth inhibition of human HL-60(TB) cells assessed as cell growth at 10^-8 M incubated for 48 hrs by sulforhodamine B assay relative to control; settings: HL-60, 48 h, read-out: Activity
[8] = test system: NCI-H322M; assay: Growth inhibition of human NCI-H322M cells assessed as cell growth at 10^-8 M incubated for 48 hrs by sulforhodamine B assay relative to control; settings: read-out: Activity
[9] = test system: NCI-H522; assay: Growth inhibition of human NCI-H522 cells assessed as cell growth at 10^-8 M incubated for 48 hrs by sulforhodamine B assay relative to control; settings: NCI-H522, 48 h, read-out: Activity
[10] = test system: COLO 205; assay: Growth inhibition of human COLO205 cells assessed as cell growth at 10^-8 M incubated for 48 hrs by sulforhodamine B assay relative to control; settings: COLO 205, 48 h, read-out: Activity
[11] = test system: SF-268; assay: Growth inhibition of human SF268 cells assessed as cell growth at 10^-8 M incubated for 48 hrs by sulforhodamine B assay relative to control; settings: SF-268, 48 h, read-out: Activity
[12] = test system: TK-10; assay: Growth inhibition of human TK10 cells assessed as cell growth at 10^-8 M incubated for 48 hrs by sulforhodamine B assay relative to control; settings: TK-10, 48 h, read-out: Activity
[13] = test system: MDA-MB-468; assay: Growth inhibition of human MDA-MB-468 cells assessed as cell growth at 10^-8 M incubated for 48 hrs by sulforhodamine B assay relative to control; settings: MDA-MB-468, 48 h, read-out: Activity
[14] = test system: COLO 205; assay: Growth inhibition of human COLO205 cells assessed as cell growth at 10^-7 M incubated for 48 hrs by sulforhodamine B assay relative to control; settings: COLO 205, 48 h, read-out: Activity
[15] = test system: KM12; assay: Growth inhibition of human KM12 cells assessed as cell growth at 10^-7 M incubated for 48 hrs by sulforhodamine B assay relative to control; settings: KM12, 48 h, read-out: Activity
[16] = test system: MDA-MB-435; assay: Growth inhibition of human MDA-MB-435 cells assessed as cell growth at 10^-7 M incubated for 48 hrs by sulforhodamine B assay relative to control; settings: MDA-MB-435, 48 h, read-out: Activity
[17] = test system: SK-MEL-28; assay: Growth inhibition of human SK-MEL-28 cells assessed as cell growth at 10^-7 M incubated for 48 hrs by sulforhodamine B assay relative to control; settings: SK-MEL-28, 48 h, read-out: Activity
[18] = test system: OVCAR-5; assay: Growth inhibition of human OVCAR5 cells assessed as cell growth at 10^-7 M incubated for 48 hrs by sulforhodamine B assay relative to control; settings: OVCAR-5, 48 h, read-out: Activity
[19] = test system: OVCAR-8; assay: Growth inhibition of human OVCAR8 cells assessed as cell growth at 10^-7 M incubated for 48 hrs by sulforhodamine B assay relative to control; settings: OVCAR-8, 48 h, read-out: Activity
[20] = test system: T47D; assay: Growth inhibition of human T47D cells assessed as cell growth at 10^-7 M incubated for 48 hrs by sulforhodamine B assay relative to control; settings: read-out: Activity
[21] = test system: HCC 2998; assay: Growth inhibition of human HCC2998 cells assessed as cell growth at 10^-6 M incubated for 48 hrs by sulforhodamine B assay relative to control; settings: HCC 2998, 48 h, read-out: Activity
[22] = test system: SNB-19; assay: Growth inhibition of human SNB19 cells assessed as cell growth at 10^-6 M incubated for 48 hrs by sulforhodamine B assay relative to control; settings: SNB-19, 48 h, read-out: Activity
[23] = test system: 786-0; assay: Growth inhibition of human 786-0 cells assessed as cell growth at 10^-6 M incubated for 48 hrs by sulforhodamine B assay relative to control; settings: 786-0, 48 h, read-out: Activity
[24] = test system: PC-3; assay: Growth inhibition of human PC3 cells assessed as cell growth at 10^-6 M incubated for 48 hrs by sulforhodamine B assay relative to control; settings: PC-3, 48 h, read-out: Activity
[25] = test system: MDA-MB-231; assay: Growth inhibition of human MDA-MB-231 cells assessed as cell growth at 10^-6 M incubated for 48 hrs by sulforhodamine B assay relative to control; settings: MDA-MB-231, 48 h, read-out: Activity
[26] = test system: MDA-MB-231; assay: Growth inhibition of human MDA-MB-231 cells assessed as cell growth at 10^-5 M incubated for 48 hrs by sulforhodamine B assay relative to control; settings: MDA-MB-231, 48 h, read-out: Activity
[27] = test system: BT-549; assay: Growth inhibition of human BT549 cells assessed as cell growth at 10^-5 M incubated for 48 hrs by sulforhodamine B assay relative to control; settings: BT-549, 48 h, read-out: Activity
[28] = test system: CCRF-CEM; assay: Growth inhibition of human CCRF-CEM cells assessed as cell growth at 10^-4 M incubated for 48 hrs by sulforhodamine B assay relative to control; settings: read-out: Activity
[29] = test system: HCT-15; assay: Growth inhibition of human HCT15 cells assessed as cell growth at 10^-4 M incubated for 48 hrs by sulforhodamine B assay relative to control; settings: HCT-15, 48 h, read-out: Activity
[30] = test system: KM12; assay: Growth inhibition of human KM12 cells assessed as cell growth at 10^-4 M incubated for 48 hrs by sulforhodamine B assay relative to control; settings: KM12, 48 h, read-out: Activity
[31] = test system: UACC-62; assay: Growth inhibition of human UACC62 cells assessed as cell growth at 10^-7 M incubated for 48 hrs by sulforhodamine B assay relative to control; settings: UACC-62, 48 h, read-out: Activity
[32] = test system: UACC-62; assay: Growth inhibition of human UACC62 cells assessed as cell growth at 10^-5 M incubated for 48 hrs by sulforhodamine B assay relative to control; settings: UACC-62, 48 h, read-out: Activity
[33] = read-out: pLC50 (the source's name) (converted)
[34] = read-out: LC50 (the source's name)

SMILES: C#C[C@@]1(O)[C@@H](CO)O[C@@H](n2ccc3c(N)ncnc32)[C@@H]1O
- TGI ([1]; read-out: TGI): > 100 µM
- GI50 ([1]; read-out: pGI50 (converted)): 0.813 µM
- CC50 [1]: > 100 µM
- TGI ([1]; read-out: pTGI): > 100 µM
- TGI ([2]; read-out: TGI): 5.43 µM
- GI50 ([2]; read-out: pGI50 (converted)): 1.51 µM
- CC50 [2]: > 100 µM
- TGI ([2]; read-out: pTGI (converted)): 5.37 µM
- TGI ([3]; read-out: TGI): 4.85 µM
- GI50 ([3]; read-out: pGI50 (converted)): 2.04 µM
- CC50 [3]: 26.3 µM
- TGI ([3]; read-out: pTGI (converted)): 4.9 µM
- TGI ([4]; read-out: TGI): 2.67 µM
- GI50 ([4]; read-out: pGI50 (converted)): 0.676 µM
- CC50 [4, 33]: 8.91 µM
- TGI ([4]; read-out: pTGI (converted)): 2.69 µM
- TGI ([5]; read-out: TGI): 12 µM
- GI50 ([5]; read-out: pGI50 (converted)): 2.95 µM
- CC50 [5, 33]: > 100 µM
- TGI ([5]; read-out: pTGI (converted)): 12 µM
- TGI ([6]; read-out: TGI): 7.28 µM
- GI50 ([6]; read-out: pGI50 (converted)): 0.794 µM
- CC50 [6]: > 100 µM
- TGI ([6]; read-out: pTGI (converted)): 7.24 µM
- growth at 0.01 µM [7]: 97%
- growth at 0.01 µM [8]: 99%
- growth at 0.01 µM [9]: 90%
- growth at 0.01 µM [10]: 95%
- growth at 0.01 µM [11]: 99%
- growth at 0.01 µM [12]: 101%
- growth at 0.01 µM [13]: 93%
- growth at 0.1 µM [14]: 97%
- growth at 0.1 µM [15]: 102%
- growth at 0.1 µM [16]: 99%
- growth at 0.1 µM [17]: 97%
- growth at 0.1 µM [18]: 106%
- growth at 0.1 µM [19]: 106%
- growth at 0.1 µM [20]: 86%
- growth at 1 µM [21]: 74%
- growth at 1 µM [22]: 67%
- growth at 1 µM [23]: 68%
- growth at 1 µM [24]: 45%
- growth at 1 µM [25]: 66%
- growth at 10 µM [26]: -20%
- growth at 10 µM [27]: -63%
- growth at 100 µM [28]: 9%
- growth at 100 µM [29]: -32%
- growth at 100 µM [30]: -52%
- growth at 0.1 µM [31]: 101%
- growth at 10 µM [32]: -44%

SMILES: C#C[C@@]1(O)[C@@H](CO)O[C@@H](n2cc(Br)c3c(N)ncnc32)[C@@H]1O
- GI50 ([1]; read-out: GI50): 0.0438 to 0.0845 µM
- TGI ([1]; read-out: TGI): > 100 µM
- CC50 [1]: > 100 µM
- TGI ([1]; read-out: pTGI): > 100 µM
- GI50 ([2]; read-out: GI50): 0.15 to 0.261 µM
- TGI ([2]; read-out: TGI): 1.25 to 5.75 µM
- CC50 [2]: > 100 µM
- GI50 ([3]; read-out: GI50): 0.373 to 4.42 µM
- TGI ([3]; read-out: TGI): 6.37 to 100 µM
- CC50 [3]: > 100 µM
- GI50 ([4]; read-out: GI50): 0.0436 to 0.182 µM
- CC50 [4, 34]: 8.04 to 100 µM
- TGI ([4]; read-out: TGI): 0.235 to 0.903 µM
- GI50 ([5]; read-out: GI50): 0.184 to 0.252 µM
- CC50 [5, 34]: > 100 µM
- TGI ([5]; read-out: TGI): 3.01 to 4.71 µM
- GI50 ([6]; read-out: GI50): 0.0451 to 0.0659 µM
- TGI ([6]; read-out: TGI): 1.02 µM
- CC50 [6]: > 100 µM
- TGI ([6]; read-out: pTGI (converted)): 1.02 µM
- growth at 0.01 µM [7]: 81 to 82%
- growth at 0.01 µM [8]: 91 to 95%
- growth at 0.01 µM [9]: 89 to 95%
- growth at 0.01 µM [10]: 95 to 97%
- growth at 0.01 µM [11]: 83 to 93%
- growth at 0.01 µM [12]: 100 to 106%
- growth at 0.01 µM [13]: 88 to 99%
- growth at 0.1 µM [14]: 24 to 69%
- growth at 0.1 µM [15]: 49 to 53%
- growth at 0.1 µM [16]: 51 to 70%
- growth at 0.1 µM [17]: 77 to 94%
- growth at 0.1 µM [18]: 62 to 97%
- growth at 0.1 µM [19]: 28 to 43%
- growth at 0.1 µM [20]: 5 to 32%
- growth at 1 µM [22]: 6%
- growth at 1 µM [24]: 8 to 12%
- growth at 1 µM [25]: 2 to 8%
- growth at 10 µM [26]: 1 to 6%
- growth at 10 µM [27]: -44%
- growth at 100 µM [28]: 3 to 4%
- growth at 100 µM [29]: 1 to 4%
- growth at 100 µM [30]: 2 to 10%
- growth at 0.1 µM [31]: 56 to 84%
- growth at 10 µM [32]: 4 to 8%
